Results published in US6806230B1, “Pyrimidine derivatives and herbicides containing them” (Kumiai Chemical Industry Co., Ltd., priority 1999, dated 2004).

Experiments:
Assay type in all cases: in vivo
barnyard grass (Eo) = experiment: Test Example 1: herbicidal effects by flooded paddy field treatment; parameters: herbicidal effects, Eo (barnyard grass):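 0-5 growth inhibition grade; 5 = over 90%; 4 = 70-90%; 3 = 50-70%; 2 = 30-50%; 1 = 10-30%; 0 = under 10%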; details: dose 100 g active ingredient per 10 ares, examined on the 21st day after treatment, standards of Table 44
Method: (§1) In a 100 cm^2 plastic pot, paddy field soil was filled and paddled. Then, seeds of barnyard grass (Eo) and monochoria (Mo) were sown, and water was introduced to a depth of 3 cm. Next day, a wettable powder prepared in accordance with Formulation Example 1 was diluted with water and dropwise applied to the water surface. The dose was 100 g of the active ingredient per 10 ares. Thereafter, cultivation was carried out in a green house, and on the 21st day after the treatment, the herbicidal effects were examined in accordance with the standards as identified in Table 44.

barnyard grass (Ec) = experiment: Test Example 2: herbicidal effects by upland soil treatment; parameters: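 0-5 growth inhibition grade; 5 = over 90%; 4 = 70-90%; 3 = 50-70%; 2 = 30-50%; 1 = 10-30%; 0 = under 10%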; details: dose 100 g active ingredient per 10 ares, examined on the 21st day after treatment
Method: In a 80 cm^2 plastic pot, upland soil was filled, and seeds of barnyard grass (Ec) and green foxtail (Se) were sown and covered with soil. A wettable powder prepared in accordance with Formulation Example 1 was diluted with water and uniformly applied to the soil surface by means of a small size spray at a rate of 100 l per 10 ares, so that the dose of the active ingredient would be 100 g per 10 ares. Thereafter, cultivation was carried out in a green house, and on the 21st day after the treatment, the herbicidal effects were examined in accordance with the standards as identified in Table 44.

monochoria (Mo) = experiment: Test Example 1: herbicidal effects by flooded paddy field treatment; parameters: herbicidal effects, Mo (monochoria):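 0-5 growth inhibition grade; 5 = over 90%; 4 = 70-90%; 3 = 50-70%; 2 = 30-50%; 1 = 10-30%; 0 = under 10%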; details: dose 100 g active ingredient per 10 ares, examined on the 21st day after treatment, standards of Table 44
Method: as §1

Compound: CN(C(=O)Cc1ccc(F)cc1)C(c1ccc(F)cc1F)c1cncnc1C(F)(F)F (racemic) [1-555]
- herbicidal effects, Eo (barnyard grass) (barnyard grass (Eo)): 5
- Ec (herbicidal effects, index) (barnyard grass (Ec)): 5
- herbicidal effects, Mo (monochoria) (monochoria (Mo)): 5

Compound: CC(C)C(c1cncnc1C(F)(F)Cl)N(C)C(=O)Oc1ccc([N+](=O)[O-])cc1 (racemic) [1-640]
- herbicidal effects, Eo (barnyard grass) (barnyard grass (Eo)): 5
- Ec (herbicidal effects, index) (barnyard grass (Ec)): 4
- herbicidal effects, Mo (monochoria) (monochoria (Mo)): 5

Compound: CCOC(=O)CN(C(=O)Cc1ccccc1)C(c1cncnc1C(F)(F)F)C(C)C (racemic) [1-476]
- herbicidal effects, Eo (barnyard grass) (barnyard grass (Eo)): 5
- Ec (herbicidal effects, index) (barnyard grass (Ec)): 5
- herbicidal effects, Mo (monochoria) (monochoria (Mo)): 5

Compound: CCOC(OCC)C(c1cncnc1C(C)C)N(C)C(=O)OCc1ccccc1 (racemic) [1-458]
- herbicidal effects, Eo (barnyard grass) (barnyard grass (Eo)): 5
- Ec (herbicidal effects, index) (barnyard grass (Ec)): 5
- herbicidal effects, Mo (monochoria) (monochoria (Mo)): 5

Compound: CC(C)c1ncncc1C(C(C)C)N(C)C(=O)Cc1ccsc1 (racemic) [2-24]
- herbicidal effects, Eo (barnyard grass) (barnyard grass (Eo)): 5
- Ec (herbicidal effects, index) (barnyard grass (Ec)): 5
- herbicidal effects, Mo (monochoria) (monochoria (Mo)): 5

Compound: CN(C(=O)Cc1ccsc1)C(c1cncnc1C(F)(F)F)C(C)(C)C (racemic) [2-14]
- herbicidal effects, Eo (barnyard grass) (barnyard grass (Eo)): 5
- Ec (herbicidal effects, index) (barnyard grass (Ec)): 5
- herbicidal effects, Mo (monochoria) (monochoria (Mo)): 5

Compound: CON=Cc1ncncc1C(C(C)C)N(C)C(=O)Cc1ccc(C)cc1 (racemic) [1-499]
- herbicidal effects, Eo (barnyard grass) (barnyard grass (Eo)): 5
- Ec (herbicidal effects, index) (barnyard grass (Ec)): 5
- herbicidal effects, Mo (monochoria) (monochoria (Mo)): 5

Compound: CC(C)C(c1cncnc1C=NO)N(C)C(=O)Cc1ccc(Cl)cc1 (racemic) [1-502]
- herbicidal effects, Eo (barnyard grass) (barnyard grass (Eo)): 5
- Ec (herbicidal effects, index) (barnyard grass (Ec)): 4
- herbicidal effects, Mo (monochoria) (monochoria (Mo)): 5

Compound: CC(C)C(c1cncnc1C=O)N(C)C(=O)Cc1ccc(Cl)cc1 (racemic) [1-524]
- herbicidal effects, Eo (barnyard grass) (barnyard grass (Eo)): 5
- Ec (herbicidal effects, index) (barnyard grass (Ec)): 5
- herbicidal effects, Mo (monochoria) (monochoria (Mo)): 5

Compound: CC(C)C(c1cncnc1C(F)(F)F)N(C)C(=O)Cc1cccs1 (racemic) [2-6]
- herbicidal effects, Eo (barnyard grass) (barnyard grass (Eo)): 5
- Ec (herbicidal effects, index) (barnyard grass (Ec)): 5
- herbicidal effects, Mo (monochoria) (monochoria (Mo)): 5

Compound: CN(C(=O)Cc1ccc(C(F)(F)F)cc1)C(c1cncnc1C(F)(F)F)C(C)(C)C (racemic) [1-305]
- herbicidal effects, Eo (barnyard grass) (barnyard grass (Eo)): 5
- Ec (herbicidal effects, index) (barnyard grass (Ec)): 5
- herbicidal effects, Mo (monochoria) (monochoria (Mo)): 5

Compound: COc1ccc(N(C)C(=O)N(C)C(c2cncnc2C(F)(F)F)C(C)C)cc1 (racemic) [1-460]
- herbicidal effects, Eo (barnyard grass) (barnyard grass (Eo)): 5
- Ec (herbicidal effects, index) (barnyard grass (Ec)): 5
- herbicidal effects, Mo (monochoria) (monochoria (Mo)): 5

Compound: CCN(C(=O)Cc1ccsc1)C(c1cncnc1C(F)(F)F)C(C)C (racemic) [2-10]
- herbicidal effects, Eo (barnyard grass) (barnyard grass (Eo)): 5
- Ec (herbicidal effects, index) (barnyard grass (Ec)): 5
- herbicidal effects, Mo (monochoria) (monochoria (Mo)): 5

Compound: CC(C)C(c1cncnc1C(F)(F)Cl)N(C)C(=S)Oc1ccccc1 (racemic) [1-641]
- herbicidal effects, Eo (barnyard grass) (barnyard grass (Eo)): 5
- Ec (herbicidal effects, index) (barnyard grass (Ec)): 5
- herbicidal effects, Mo (monochoria) (monochoria (Mo)): 5

Compound: C#CCN(C(=O)Cc1ccc(C)cc1)C(c1cncnc1CC)C(C)C (racemic) [1-561]
- herbicidal effects, Eo (barnyard grass) (barnyard grass (Eo)): 5
- Ec (herbicidal effects, index) (barnyard grass (Ec)): 5
- herbicidal effects, Mo (monochoria) (monochoria (Mo)): 5

Compound: CN(C(=O)Cc1ccc(F)cc1F)C(c1ccccc1)c1cncnc1C(F)(F)F (racemic) [Compound 1-274]
- herbicidal effects, Eo (barnyard grass) (barnyard grass (Eo)): 5
- Ec (herbicidal effects, index) (barnyard grass (Ec)): 5
- herbicidal effects, Mo (monochoria) (monochoria (Mo)): 5

Compound: CC(C)C(c1cncnc1C(F)(F)F)N(C)C(=O)COc1cncc(Cl)c1 (racemic) [2-44]
- herbicidal effects, Eo (barnyard grass) (barnyard grass (Eo)): 5
- Ec (herbicidal effects, index) (barnyard grass (Ec)): 5
- herbicidal effects, Mo (monochoria) (monochoria (Mo)): 5

Compound: CCc1ncncc1C(C(C)C)N(C)C(=O)Cc1ccc(F)cc1 (racemic) [1-433]
- herbicidal effects, Eo (barnyard grass) (barnyard grass (Eo)): 5
- Ec (herbicidal effects, index) (barnyard grass (Ec)): 5
- herbicidal effects, Mo (monochoria) (monochoria (Mo)): 5

Compound: CC(C)c1ncncc1C(C(C)C)N(C)C(=O)N(C)c1ccc(F)cc1 (racemic) [1-429]
- herbicidal effects, Eo (barnyard grass) (barnyard grass (Eo)): 5
- Ec (herbicidal effects, index) (barnyard grass (Ec)): 5
- herbicidal effects, Mo (monochoria) (monochoria (Mo)): 5

Compound: C=CCN(C(=O)Cc1ccccc1)C(c1cncnc1C(F)(F)F)C(C)C (racemic) [1-518]
- herbicidal effects, Eo (barnyard grass) (barnyard grass (Eo)): 5
- Ec (herbicidal effects, index) (barnyard grass (Ec)): 5
- herbicidal effects, Mo (monochoria) (monochoria (Mo)): 5

Compound: CC(C)C(c1cncnc1C(F)(F)F)N(C)C(=O)C(=O)c1ccc(Cl)cc1 (racemic) [1-335]
- herbicidal effects, Eo (barnyard grass) (barnyard grass (Eo)): 5
- Ec (herbicidal effects, index) (barnyard grass (Ec)): 5
- herbicidal effects, Mo (monochoria) (monochoria (Mo)): 5

Compound: CC(NC(=O)N(C)C(c1cncnc1C(F)(F)F)C(C)C)c1ccccc1 (mixture of isomers) [1-535]
- herbicidal effects, Eo (barnyard grass) (barnyard grass (Eo)): 5
- Ec (herbicidal effects, index) (barnyard grass (Ec)): 5
- herbicidal effects, Mo (monochoria) (monochoria (Mo)): 5

Compound: CN(C(=O)Cc1cccs1)C(c1cncnc1C(F)(F)F)C(C)(C)C (racemic) [2-13]
- herbicidal effects, Eo (barnyard grass) (barnyard grass (Eo)): 5
- Ec (herbicidal effects, index) (barnyard grass (Ec)): 5
- herbicidal effects, Mo (monochoria) (monochoria (Mo)): 5

Compound: Cc1ccccc1C(c1cncnc1C(F)(F)F)N(C)C(=O)Cc1ccccc1 (racemic) [1-550]
- herbicidal effects, Eo (barnyard grass) (barnyard grass (Eo)): 5
- Ec (herbicidal effects, index) (barnyard grass (Ec)): 5
- herbicidal effects, Mo (monochoria) (monochoria (Mo)): 5

Compound: CC(C)C(c1cncnc1C(F)(F)F)N(C)C(=O)N(C)c1ccsc1 (racemic) [2-63]
- herbicidal effects, Eo (barnyard grass) (barnyard grass (Eo)): 5
- Ec (herbicidal effects, index) (barnyard grass (Ec)): 5
- herbicidal effects, Mo (monochoria) (monochoria (Mo)): 5

Compound: CN(C(=O)Cc1ccc(F)cc1F)C(c1cncnc1C(F)(F)F)C(C)(C)C (racemic) [Compound 1-273]
- herbicidal effects, Eo (barnyard grass) (barnyard grass (Eo)): 5
- Ec (herbicidal effects, index) (barnyard grass (Ec)): 5
- herbicidal effects, Mo (monochoria) (monochoria (Mo)): 5

Compound: CC(C)C(c1cncnc1-c1ccccc1)N(C)C(=O)Cc1ccc(F)cc1 (racemic) [1-323]
- herbicidal effects, Eo (barnyard grass) (barnyard grass (Eo)): 5
- Ec (herbicidal effects, index) (barnyard grass (Ec)): 4
- herbicidal effects, Mo (monochoria) (monochoria (Mo)): 5

Compound: C#CCN(C(=O)C(C)c1ccccc1)C(c1cncnc1CC)C(C)C (mixture of isomers) [1-562]
- herbicidal effects, Eo (barnyard grass) (barnyard grass (Eo)): 5
- Ec (herbicidal effects, index) (barnyard grass (Ec)): 5
- herbicidal effects, Mo (monochoria) (monochoria (Mo)): 5

Compound: CN(C(=O)Cc1ccc(Cl)cc1F)C(c1cncnc1C(F)(F)F)C(C)(C)C (racemic) [Compound 1-249]
- herbicidal effects, Eo (barnyard grass) (barnyard grass (Eo)): 5
- Ec (herbicidal effects, index) (barnyard grass (Ec)): 5
- herbicidal effects, Mo (monochoria) (monochoria (Mo)): 5

Compound: CCC(C)C(c1cncnc1C(F)(F)F)N(C)C(=O)Cc1ccc(C(F)(F)F)cc1 (mixture of isomers) [1-307]
- herbicidal effects, Eo (barnyard grass) (barnyard grass (Eo)): 5
- Ec (herbicidal effects, index) (barnyard grass (Ec)): 5
- herbicidal effects, Mo (monochoria) (monochoria (Mo)): 5

Compound: CSCC(c1cncnc1C(F)(F)F)N(C)C(=O)Cc1ccc(Cl)cc1 (racemic) [1-414]
- herbicidal effects, Eo (barnyard grass) (barnyard grass (Eo)): 5
- Ec (herbicidal effects, index) (barnyard grass (Ec)): 4
- herbicidal effects, Mo (monochoria) (monochoria (Mo)): 5

Compound: CCC(c1cncnc1C(C)C)N(C)C(=O)Cc1ccc(Cl)cc1 (racemic) [1-438]
- herbicidal effects, Eo (barnyard grass) (barnyard grass (Eo)): 5
- Ec (herbicidal effects, index) (barnyard grass (Ec)): 5
- herbicidal effects, Mo (monochoria) (monochoria (Mo)): 5

Compound: CC(C)c1ncncc1C(C(C)C)N(C)C(=O)N(C)c1ccccc1 (racemic) [1-327]
- herbicidal effects, Eo (barnyard grass) (barnyard grass (Eo)): 5
- Ec (herbicidal effects, index) (barnyard grass (Ec)): 5
- herbicidal effects, Mo (monochoria) (monochoria (Mo)): 5

Compound: CC(C)CC(c1cncnc1C(F)(F)F)N(C)C(=O)Cc1ccsc1 (racemic) [2-52]
- herbicidal effects, Eo (barnyard grass) (barnyard grass (Eo)): 5
- Ec (herbicidal effects, index) (barnyard grass (Ec)): 5
- herbicidal effects, Mo (monochoria) (monochoria (Mo)): 5

Compound: CCN(C(=O)Cc1cccs1)C(c1cncnc1C(F)(F)F)C(C)C (racemic) [2-9]
- herbicidal effects, Eo (barnyard grass) (barnyard grass (Eo)): 5
- Ec (herbicidal effects, index) (barnyard grass (Ec)): 5
- herbicidal effects, Mo (monochoria) (monochoria (Mo)): 5
